Tests used:
Assay in all cases: relative viability (nuclei count vs DMSO), 5 days (fraction); higher = more cells survive
[1] = compound: CC1=C(N=C(N=C1N)[C@H](CC(=O)N)NC[C@@H](C(=O)N)N)C(=O)N[C@@H]([C@H](C2=CN=CN2)OC3C(C(C(C(O3)CO)O)O)OC4C(C(C(C(O4)CO)O)OC(=O)N)O)C(=O)N[C@H](C)[C@H]([C@H](C)C(=O)N[C@@H]([C@@H](C)O)C(=O)NCCC5=NC(=CS5)C6=NC(=CS6)C(=O)NCCC[S+](C)C)O [Bleomycin] + CC(=O)c1c(C)c2cnc(Nc3ccc(N4CCNCC4)cn3)nc2n(C2CCCC2)c1=O [Palbociclib] (partner 0.5 µM); details: main component drawn
Outline: (§1)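 Lung cancer cell lines in 1536-well plates were dosed by pin tool the day after seeding, either with one drug alone or with a fixed anchor-drug dose plus five library-drug doses (not always all listed) in √10 steps. After 5 days, cells were fixed and their nuclei stained in one step (final 0.05% Triton X-100, 1% formaldehyde, 1 ug/ml Hoechst), then counted on 4× images. Relative viability is the nuclei count in treated wells divided by that in vehicle wells. Values are medians of duplicate plates.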

[2] = compound: CC1=C(N=C(N=C1N)[C@H](CC(=O)N)NC[C@@H](C(=O)N)N)C(=O)N[C@@H]([C@H](C2=CN=CN2)OC3C(C(C(C(O3)CO)O)O)OC4C(C(C(C(O4)CO)O)OC(=O)N)O)C(=O)N[C@H](C)[C@H]([C@H](C)C(=O)N[C@@H]([C@@H](C)O)C(=O)NCCC5=NC(=CS5)C6=NC(=CS6)C(=O)NCCC[S+](C)C)O [Bleomycin] + CC1(C)CCC(c2ccc(Cl)cc2)=C(CN2CCN(c3ccc(C(=O)NS(=O)(=O)c4ccc(N[C@H](CCN5CCOCC5)CSc5ccccc5)c(S(=O)(=O)C(F)(F)F)c4)cc3)CC2)C1 [Navitoclax] (partner 0.5 µM); details: main component drawn
Outline: as §1

[3] = compound: COc1cc([C@@H]2c3cc4c(cc3[C@@H](O[C@@H]3O[C@@H]5CO[C@@H](C)O[C@H]5[C@H](O)[C@H]3O)[C@H]3COC(=O)[C@H]23)OCO4)cc(OC)c1O [Etoposide] + C[C@@H](Oc1cc(-c2cnn(C3CCNCC3)c2)cnc1N)c1c(Cl)ccc(F)c1Cl [Crizotinib] (partner 1 µM)
Outline: as §1

[4] = compound: COc1cc([C@@H]2c3cc4c(cc3[C@@H](O[C@@H]3O[C@@H]5CO[C@@H](C)O[C@H]5[C@H](O)[C@H]3O)[C@H]3COC(=O)[C@H]23)OCO4)cc(OC)c1O [Etoposide] + C[C@]1(O)C[C@@H](c2nc(-c3ccc4ccc(-c5ccccc5)nc4c3)c3c(N)nccn32)C1 [Linsitinib] (partner 1 µM)
Outline: as §1

| Cell Line | relative viability ([1]; first compound 0.01 µM) | relative viability ([1]; first compound 0.03162 µM) | relative viability ([1]; first compound 0.1 µM) | relative viability ([1]; first compound 0.3162 µM) | relative viability ([1]; first compound 1 µM) | relative viability ([2]; first compound 0.01 µM) | relative viability ([2]; first compound 0.03162 µM) | relative viability ([2]; first compound 0.1 µM) | relative viability ([2]; first compound 0.3162 µM) | relative viability ([2]; first compound 1 µM) | relative viability ([3]; first compound 0.01 µM) | relative viability ([3]; first compound 0.03162 µM) | relative viability ([3]; first compound 0.1 µM) | relative viability ([3]; first compound 0.3162 µM) | relative viability ([3]; first compound 1 µM) | relative viability ([4]; first compound 0.01 µM) | relative viability ([4]; first compound 0.03162 µM) | relative viability ([4]; first compound 0.1 µM) | relative viability ([4]; first compound 0.3162 µM) | relative viability ([4]; first compound 1 µM) |
| --- | --- | --- | --- | --- | --- | --- | --- | --- | --- | --- | --- | --- | --- | --- | --- | --- | --- | --- | --- | --- |
| NCI-H2085 | 0.443 | 0.455 | 0.432 | 0.324 | 0.355 | 0.994 | 1.02 | 0.849 | 0.508 | 0.465 | 0.91 | 0.871 | 0.827 | 0.5 | 0.326 | 0.8 | 0.883 | 0.859 | 0.51 | 0.279 |
| NCI-H2087 | 0.222 | 0.236 | 0.221 | 0.118 | 0.147 | 0.69 | 1.04 | 0.841 | 0.371 | 0.158 | – | 1.02 | 0.856 | 0.571 | 0.277 | – | 1.06 | 0.889 | 0.588 | 0.303 |
| NCI-H2126 | 0.338 | 0.384 | 0.298 | 0.33 | 0.319 | 0.787 | 0.82 | 0.839 | 0.8 | 0.643 | 0.998 | 1.05 | 0.765 | 0.888 | 0.328 | 0.738 | 0.719 | 0.457 | 0.598 | 0.437 |
| NCI-H2228 | 0.719 | 0.683 | 0.465 | 0.411 | 0.226 | 1.02 | 0.625 | 0.664 | 0.437 | 0.363 | 0.633 | 0.551 | 0.457 | 0.373 | 0.218 | 0.535 | 0.57 | 0.728 | 0.627 | 0.462 |
| NCI-H2347 | 0.43 | 0.479 | 0.459 | 0.359 | 0.338 | 0.75 | 0.883 | 0.663 | 0.259 | 0.402 | 0.677 | 0.455 | 0.408 | 0.384 | 0.339 | 1.23 | 1.08 | 0.592 | 0.523 | 0.408 |
| NCI-H2405 | 0.424 | 0.502 | 0.544 | 0.346 | 0.323 | 0.559 | 0.714 | 0.499 | 0.196 | 0.199 | 0.804 | 0.962 | 0.717 | 0.694 | 0.33 | 0.791 | 0.96 | 0.582 | 0.7 | 0.377 |
| NCI-H3122 | 0.198 | 0.186 | 0.18 | 0.132 | 0.148 | 1.08 | 1.03 | 0.96 | 0.79 | 0.547 | 0.307 | 0.288 | 0.231 | 0.262 | 0.246 | 1.04 | 1.05 | 1.03 | 0.88 | 0.449 |
| PC-3 [JPC-3] | 0.487 | 0.596 | 0.525 | 0.53 | 0.488 | 0.784 | 0.957 | 0.758 | 0.63 | 0.511 | 0.955 | 1.01 | 1.05 | 0.969 | 0.722 | 0.965 | 0.991 | 0.952 | 0.933 | 0.84 |
| PC-14 | 0.193 | 0.174 | 0.127 | 0.0449 | 0.0437 | 0.663 | 0.532 | 0.174 | 0.0752 | 0.0592 | 0.957 | 0.896 | 0.951 | 0.728 | 0.59 | 1.01 | 1.05 | 0.956 | 0.838 | 0.507 |
| RERF-LC-KJ | 0.678 | 0.537 | 0.444 | 0.185 | 0.18 | 0.54 | 0.5 | 0.439 | 0.227 | 0.192 | 0.885 | 0.798 | 0.773 | 0.685 | 0.46 | 0.84 | 0.895 | 0.866 | 0.769 | 0.562 |
| SK-LU-1 | 0.356 | 0.461 | 0.35 | 0.312 | 0.332 | 0.807 | 1.06 | 0.662 | 0.205 | 0.264 | 0.778 | 0.902 | 0.614 | 0.387 | 0.327 | 1.03 | 1.03 | 0.829 | 0.401 | 0.281 |
| SK-MES-1 | 0.313 | 0.306 | 0.329 | 0.254 | 0.204 | 1.12 | 0.97 | 0.736 | 0.278 | 0.18 | 0.943 | 0.957 | 0.887 | 0.433 | 0.273 | 1.05 | 1.07 | 0.862 | 0.612 | 0.262 |
| SW 1573 | 0.277 | 0.3 | 0.265 | 0.144 | 0.167 | 0.652 | 0.571 | 0.515 | 0.201 | 0.104 | 0.634 | 0.618 | 0.595 | 0.29 | 0.198 | 0.884 | 0.76 | 0.646 | 0.327 | 0.277 |

Reference: the supplement of paper PMC10307832
